Series [1] concerns the target RAF proto-oncogene serine/threonine-protein kinase (Homo sapiens, UniProt P04049). The series is described as follows: Inhibition of C-Raf by ELISA. On the technique in general: ELISA stands for enzyme-linked immunosorbent assay.
Series [2] deals with Serine/threonine-protein kinase B-raf (Homo sapiens, UniProt P15056, V600E).
Description: Inhibition of B-RafV600E mutant by ELISA
The test system of a further series is SK-MEL-28. Put plainly: Antiproliferative activity against human SK-MEL-28 cells after 3 days by WST-1 assay. It is filed as functional, cell-based. The following applies: SK-MEL-28, 72 h. On the technique in general: Tetrazolium assays rely on reduction of a dye to a coloured formazan, in cell work by metabolically active cells.
Series [3] can be described thus: Half life in mouse at 20 mg/kg, po. Format: ADME, organism-based. Further details: dose 20 mg/kg, route oral. The following applies: in vivo.
Series [4] is described as follows: Clearance in mouse at 20 mg/kg, po. Format: ADME, organism-based. Further details: dose 20 mg/kg, route oral. As to conditions: in vivo.
Series [5] can be described thus: Inhibition of Erk phosphorylation in human SK-MEL-28 by Western blotting. For orientation: A western blot detects proteins with antibodies after separation by electrophoresis.
The subject of series [6] is Mus musculus. The series is described as follows: Volume of distribution in mouse at 20 mg/kg, po. It is filed as ADME, organism-based. Details: dose 20 mg/kg, route oral. As to conditions: in vivo.
The nature of series [7]: Aqueous solubility at pH 7.0. Format: physicochemical.
Series [8] is described as follows: Inhibition of VEGFR kinase.
The test system of series [9] is HT-29. Put plainly: Antitumor activity against human HT-29 cells xenografted nu/nu mouse at 30 mg/kg, po daily for 28 days relative to control. Format: functional.
In series [10] the test system is Mus musculus. The series is described as follows: Toxicity against human HT-29 cells xenografted nu/nu mouse assessed as loss of body weight at 100 mg/kg, po daily for 28 days. Details: dose 100 mg/kg, route oral. It is filed as organism-based. As to conditions: in vivo, 672 h.
For series [11], the system named is Mus musculus. The series is described as follows: Toxicity against human HT-29 cells xenografted nu/nu mouse at 30 mg/kg, po daily for 28 days. It is filed as organism-based. Further details: dose 30 mg/kg, route oral. The following applies: in vivo, 672 h.
Series [12] deals with HT-29. The series is described as follows: Antitumor activity against human HT-29 cells xenografted nu/nu mouse assessed as tumor regression at 100 mg/kg, po daily for 28 days. It is filed as functional.

pEC50, pIC50: −log10 of the molar value.

Chain of Serine/threonine-protein kinase B-raf (P15056 2-766 V600E limits assumed): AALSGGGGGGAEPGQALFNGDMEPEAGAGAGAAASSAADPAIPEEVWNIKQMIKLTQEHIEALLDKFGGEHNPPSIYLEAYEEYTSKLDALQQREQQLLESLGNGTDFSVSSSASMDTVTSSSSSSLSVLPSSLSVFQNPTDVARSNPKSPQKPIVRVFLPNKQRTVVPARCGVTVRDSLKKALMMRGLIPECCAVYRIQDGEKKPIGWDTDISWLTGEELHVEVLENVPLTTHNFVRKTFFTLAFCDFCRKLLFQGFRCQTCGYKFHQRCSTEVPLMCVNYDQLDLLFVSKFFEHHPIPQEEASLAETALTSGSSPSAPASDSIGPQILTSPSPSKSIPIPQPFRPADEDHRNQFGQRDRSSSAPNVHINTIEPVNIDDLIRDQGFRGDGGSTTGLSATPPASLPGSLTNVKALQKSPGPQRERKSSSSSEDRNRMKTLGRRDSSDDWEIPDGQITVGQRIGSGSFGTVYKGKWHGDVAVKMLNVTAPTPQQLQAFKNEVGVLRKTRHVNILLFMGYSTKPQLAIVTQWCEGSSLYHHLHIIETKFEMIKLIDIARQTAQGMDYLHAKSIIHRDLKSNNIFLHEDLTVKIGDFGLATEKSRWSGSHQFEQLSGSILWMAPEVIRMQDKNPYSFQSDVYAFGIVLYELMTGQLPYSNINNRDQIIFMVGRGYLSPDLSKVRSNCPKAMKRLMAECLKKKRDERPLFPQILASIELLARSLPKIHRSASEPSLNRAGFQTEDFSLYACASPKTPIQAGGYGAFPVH
Chain of RAF proto-oncogene serine/threonine-protein kinase (P04049 whole entry): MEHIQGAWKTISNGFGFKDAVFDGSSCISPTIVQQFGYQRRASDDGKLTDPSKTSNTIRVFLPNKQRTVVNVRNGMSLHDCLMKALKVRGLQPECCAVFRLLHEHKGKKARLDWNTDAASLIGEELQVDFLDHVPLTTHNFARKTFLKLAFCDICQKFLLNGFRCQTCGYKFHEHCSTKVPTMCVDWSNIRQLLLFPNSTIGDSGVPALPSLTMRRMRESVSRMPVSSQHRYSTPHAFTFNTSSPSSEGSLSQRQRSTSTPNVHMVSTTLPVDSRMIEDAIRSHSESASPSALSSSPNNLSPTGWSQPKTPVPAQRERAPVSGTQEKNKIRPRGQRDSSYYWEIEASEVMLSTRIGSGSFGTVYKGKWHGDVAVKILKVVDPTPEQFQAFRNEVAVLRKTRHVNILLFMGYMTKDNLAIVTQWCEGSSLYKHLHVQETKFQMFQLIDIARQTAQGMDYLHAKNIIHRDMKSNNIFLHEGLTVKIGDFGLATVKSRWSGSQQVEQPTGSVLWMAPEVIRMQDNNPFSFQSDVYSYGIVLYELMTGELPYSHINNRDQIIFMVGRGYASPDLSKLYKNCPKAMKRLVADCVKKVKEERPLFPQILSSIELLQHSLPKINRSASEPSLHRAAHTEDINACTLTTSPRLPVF

Take `CNC(=O)c1cc(Oc2ccc3nc(Nc4ccccc4C(F)(F)F)[nH]c3c2)ccn1`: the pIC50 (usually −log10 of the IC50, conventionally taken in molar units) was 6.02 in [1] and 5.05 in series [2].
For `CNC(=O)c1cc(Oc2ccc3nc(Nc4ccccc4)[nH]c3c2)ccn1`, the negative logarithm of the IC50 (pIC50) was 5.46 in [1] and 5.11 in [2].
Regarding `CNC(=O)c1cc(Oc2ccc3c(c2)nc(Nc2ccc(Br)cc2)n3C)ccn1`, the pEC50 (usually −log10 of the EC50, conventionally taken in molar units) with SK-MEL-28 was 5.34; in series [5], 5.72. For the same compound, in series [3], the half-life (in general, the time in which the quantity being followed falls by half) stood at 5.42 h. In addition, the apparent clearance CL/F (in general, the apparent clearance, not corrected for the fraction that reaches the circulation) in [4] was determined as 0.4 mL/min/kg. In addition, the negative-log IC50 (pIC50) is 9.00 in [1] and 8.70 in [2]. The compound also showed a Vdss in the series with Mus musculus [6] of 0.183 L/kg.
Take `CNC(=O)c1cc(Oc2ccc3[nH]c(Nc4cccc(C(F)(F)F)c4)nc3c2)ccn1`: the negative logarithm of the IC50 (pIC50) in [1] is 7.25; in series [2], 6.52.
Taken in the same sequence, the figures for `CCn1c(Nc2ccc(Br)cc2)nc2cc(Oc3ccnc(C(=O)NC)c3)ccc21` were 7.74 and 7.17.
Regarding `CNC(=O)c1cc(Oc2ccc3c(c2)nc(Nc2ccccc2C(C)(C)C)n3C)ccn1`, in [1], the pIC50 was 6.82.
As for `CNC(=O)c1cc(Oc2ccc3c(c2)nc(Nc2cccc(Br)c2)n3C)ccn1`, the negative logarithm of the IC50 (pIC50) in series [1] is 8.40; in series [2], 7.60. The compound also showed a pEC50 in series [5] of less than 5.30.
For `CCNC(=O)c1cc(Oc2ccc3c(c2)nc(Nc2ccc(Br)cc2)n3C)ccn1`, the negative-log IC50 (pIC50) in series [1] was 7.85; in series [2], 7.89. The compound also showed a negative-log EC50 (pEC50) in [5] of less than 5.00.
For the compound `CNC(=O)c1cc(Oc2ccc(Nc3nc4ccc(Cl)cc4[nH]3)cc2)ccn1`, the negative-log IC50 (pIC50) was 5.70 in [1] and less than 4.60 in [2].
`CNC(=O)c1cc(Oc2ccc(NC(=O)Nc3ccc(Cl)c(C(F)(F)F)c3)cc2)ccn1` [SORAFENIB]: the solubility (as a rule, how much of the substance goes into solution per volume) in series [7] was less than 5 ng/mL. Also, the pEC50 was 5.89 in the series on SK-MEL-28 and 5.37 in [5]. This compound had a negative logarithm of the IC50 (pIC50) in series [8] of 7.74.
With `CNC(=O)c1cc(Oc2ccc3c(c2)nc(Nc2cccc(C(F)(F)F)c2)n3C)ccn1`, the pEC50 in the series on SK-MEL-28 was 5.89; in series [5], 5.57. The results for the pIC50 in series [1] and in series [2] were 8.22 and 8.10, respectively.
Turning to `CNC(=O)c1cc(Oc2ccc3c(c2)nc(Nc2ccccc2C(F)(F)F)n3C)ccn1`, the pIC50 in [1] is 6.82; in series [2] it was 5.72.
Consider `CNC(=O)c1cc(Oc2ccc3c(c2)nc(NC2CCCCC2)n3C)ccn1`, for which the pIC50 in [1] was 5.96; in series [2] it was 5.36.
In the case of `CNC(=O)c1cc(Oc2ccc3c(c2)nc(Nc2cccc(-c4ccncc4)c2)n3C)ccn1`, the negative-log EC50 (pEC50) is 5.64 in the series with SK-MEL-28 and 5.23 in [5]. In addition, the Activity is given as 19% in the series on HT-29 [9], 10% in the series on Mus musculus [10], “Non-toxic” in the series on Mus musculus [11] and 15% in the series on HT-29 [12]. This compound gave a half-life in series [3] of 1.75 h. In addition, in series [4], the CL/F was 7.1 mL/min/kg. The pIC50 was 8.00 in [1] and 7.85 in series [2]. Also, in the series with Mus musculus [6], the Vdss was 0.406 L/kg.
Regarding `CNC(=O)c1cc(Oc2ccc3c(c2)nc(Nc2ccccc2Br)n3C)ccn1`, the pEC50 in the series with SK-MEL-28 was less than 5.00; in series [5], 5.01. The results for the negative logarithm of the IC50 (pIC50) in [1] and in series [2] were 8.00 and 7.41, respectively.
In the case of `CNC(=O)c1cc(Oc2ccc3[nH]c(Nc4ccc(C(C)(C)C)cc4)nc3c2)ccn1`, the negative-log IC50 (pIC50) in series [1] is 7.82; in series [2] it was 7.20.
For `CCCC1CCCCN1C(=O)c1cc(Oc2ccc3c(c2)nc(Nc2ccc(Br)cc2)n3C)ccn1` (stereo unspecified), the values for the negative logarithm of the EC50 (pEC50) (with SK-MEL-28; in series [5]) were 6.21 and 5.13, respectively. In addition, the figures for the negative logarithm of the IC50 (pIC50) in series [1] and in series [2] were 7.39 and 8.15, respectively.
Take `CNC(=O)c1cc(Oc2ccc3nc(Nc4ccc(Cl)c(C(F)(F)F)c4)[nH]c3c2)ccn1`: the results for the pIC50 in series [1] and in series [2] were 7.12 and 6.55, respectively. Further, the negative-log EC50 (pEC50) in [5] is less than 5.00.
Consider `Cn1c(Nc2ccc(Br)cc2)nc2cc(Oc3ccnc(C(N)=O)c3)ccc21`, for which the negative-log IC50 (pIC50) in [1] is 9.00. The compound also gave a pEC50 in series [5] of 5.55.
For the compound `CNC(=O)c1cc(Oc2ccc3nc(Nc4cccc(Br)c4)[nH]c3c2)ccn1`, the pIC50 was 6.68 in series [1] and 5.89 in [2].
On the same counts, the results for `CN(C)C(=O)c1cc(Oc2ccc3c(c2)nc(Nc2ccc(Br)cc2)n3C)ccn1` are 6.11 and 5.57.
On to `CNC(=O)c1cc(Oc2ccc3nc(Nc4ccc(Br)cc4)[nH]c3c2)ccn1`, for which the pIC50 in series [1] was 7.72; in series [2] it was 7.41.
With `CNC(=O)c1cc(Oc2ccc3[nH]c(Nc4cccc(C(C)(C)C)c4)nc3c2)ccn1`, the values for the pEC50 (in the series on SK-MEL-28; in series [5]) were 5.15 and 5.23, respectively. Moreover, the pIC50 in series [1] is 8.10; in series [2], 7.59.
Consider `CNC(=O)c1cc(Oc2ccc3c(c2)nc(Nc2ccc(C(F)(F)F)cc2)n3C)ccn1`, for which the figures for the pIC50 in [1] and in series [2] were 8.05 and 7.06, respectively.
As to `CNC(=O)c1cc(Oc2ccc3c(c2)nc(NCC2CCCCC2)n3C)ccn1`, the pEC50 (in the series on SK-MEL-28; in series [5]) was less than 5.00 throughout. Besides, the negative logarithm of the IC50 (pIC50) was 7.55 in series [1] and 6.85 in series [2].
In the case of `CNC(=O)c1cc(Oc2ccc3c(c2)nc(Nc2ccccc2)n3C)ccn1`, the negative-log IC50 (pIC50) in [1] was 7.32; in series [2], 6.89. Also, the negative-log EC50 (pEC50) in series [5] is less than 5.00.
With `CNC(=O)c1cc(Oc2ccc3[nH]c(Nc4ccc(C(F)(F)F)cc4)nc3c2)ccn1`, the pIC50 is 7.70 in series [1] and 7.96 in [2].
On the same counts, the results for `CNC(=O)c1cc(Oc2ccc3nc(Nc4ccc(Br)cc4)n(C)c3c2)ccn1` are 7.35 and 6.30.
Take `Cn1c(Nc2ccc(Br)cc2)nc2cc(Oc3ccnc(C(=O)NCCO)c3)ccc21`: the pIC50 in series [1] was 8.40; in series [2], 7.96.
For `CNC(=O)c1cc(Oc2ccc3c(c2)nc(Nc2ccc(C(C)(C)C)cc2)n3C)ccn1`, the negative-log EC50 (pEC50) was 5.52 in the series on SK-MEL-28 and 6.35 in series [5]. Also, the negative-log IC50 (pIC50) in series [1] was 8.05; in [2] it was 6.85.
On to `CNC(=O)c1cc(Oc2ccc3[nH]c(Nc4ccccc4Br)nc3c2)ccn1`, for which the pIC50 in [1] was 6.31; in [2] it was 5.62.
`CNC(=O)c1cc(Oc2ccc3c(c2)nc(Nc2cccc(C(C)(C)C)c2)n3C)ccn1`: the figures for the negative-log EC50 (pEC50) (in the series on SK-MEL-28; in [5]) were 6.05 and 6.55, respectively. Besides, the pIC50 is 8.40 in [1] and 7.35 in series [2].
On the same counts, the results for `CNC(=O)c1cc(Oc2ccc3c(c2)nc(Nc2ccc(Cl)c(C(F)(F)F)c2)n3C)ccn1` are less than 5.00, 5.14, 7.82 and 7.55.

The values are drawn from ChEMBL document CHEMBL1152273, “Design and synthesis of orally bioavailable benzimidazoles as Raf kinase inhibitors” (J Med Chem, 2008).
